This is an account of results in patent US20260001928A1 (CORTERIA PHARMACEUTICALS, priority 2022, published 2026).

pEC50: −log10 of the molar value. *1 amine or outer side, *2 acyl side, *3 side chain or, on linkers, in order; H or OH if unused. Where a SMILES comes first, the peptide text is derived from it. Side-chain parts run from the residue outwards. [ ]: non-standard residue; d: D form. The star is where a group is joined. C20 diacid = O=C(O)CCCCCCCCCCCCCCCCCCC(=O)*; γGlu = O=C(O)[C@H](CCC(=O)[*:2])N[*:1]; Decanoyl = CCCCCCCCCC(=O)*; Pentanoyl = CCCCC(=O)*; AEEA = NCCOCCOCC(=O)O; Aib = CC(C)(N)C(=O)O

Data set [1] is described as follows: Chemical stability in buffer (pH 7.4 / pH 4.5), % purity loss. The settings on record: 40° C. vs 5° C., 14 or 28 days; for Buffer stability pH 7.4 % purity loss: 100 mM phosphate buffer pH 7.4. It is filed as physicochemical. In outline: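 Compounds dissolved at 10 mg/mL target in 100 mM phosphate (pH 7.4) or 100 mM acetate (pH 4.5) buffer for 1 h at room temperature, then centrifuged. Diluted supernatant stored at 5 °C or 40 °C for 14 or 28 days; % purity loss by LC-UV.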

The nature of data set [2]: Pharmacokinetics in male Sprague Dawley rats after subcutaneous administration. It is filed as in vivo. The conditions noted are these: plasma, rat, IV, 0.025 mg/kg.
The target in data set [3] is T1, human CRF2a receptor (Homo sapiens, UniProt Q13324).
T1 construct: expressed in transfected cells; host or cells: TeloHEAC cells
T1 sequence (Q13324 1-411): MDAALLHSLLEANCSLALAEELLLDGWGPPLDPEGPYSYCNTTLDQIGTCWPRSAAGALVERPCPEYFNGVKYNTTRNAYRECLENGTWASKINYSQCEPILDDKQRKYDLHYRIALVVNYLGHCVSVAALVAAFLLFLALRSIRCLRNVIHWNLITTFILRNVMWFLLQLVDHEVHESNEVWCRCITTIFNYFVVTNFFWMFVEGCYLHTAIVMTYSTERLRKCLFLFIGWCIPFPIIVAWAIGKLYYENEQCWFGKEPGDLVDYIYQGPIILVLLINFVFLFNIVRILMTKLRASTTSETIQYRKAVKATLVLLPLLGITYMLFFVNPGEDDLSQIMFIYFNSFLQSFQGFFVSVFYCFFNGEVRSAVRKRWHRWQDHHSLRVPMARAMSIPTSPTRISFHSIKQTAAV
Put plainly: Activity at human CRF2a receptor, cAMP functional assay in TeloHEAC cells. It is filed as cell-based. The settings on record: TeloHEAC cells stably expressing human CRF2a receptor, relative to urocortin 2 (100 nM = 100%). In outline: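 TeloHEAC cells stably expressing human CRF2a (10000 cells/well) were treated with 16-point 1:2 compound dilutions in HBSS/20 mM HEPES with IBMX for 30 min at 37° C. cAMP was read by HTRF (665/620 nm ratio). EC50 was the concentration giving 50% activation, with 100 nM urocortin 2 set as 100%.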

Data set [4] in a line: In vitro subcutaneous tissue supernatant (SCts) stability and metabolite identification, rat. It is filed as in vitro ADME. Details: remaining at 2 h: dose or concentration left out as unconfirmed. The conditions noted are these: male, Sprague Dawley; rat subcutaneous tissue supernatant (SCts), 37° C, 2 h.
Data set [5] is described as follows: Pharmacokinetics in male Sprague Dawley rats after subcutaneous administration. It is filed as in vivo. The settings on record: plasma, rat, SC, 0.05 mg/kg.
Data set [6] has as its target T2, CFR1R receptor (Homo sapiens, UniProt P34998).
T2 construct: host or cells: CHO-K1 (clone 2)
T2 sequence (P34998 24-415): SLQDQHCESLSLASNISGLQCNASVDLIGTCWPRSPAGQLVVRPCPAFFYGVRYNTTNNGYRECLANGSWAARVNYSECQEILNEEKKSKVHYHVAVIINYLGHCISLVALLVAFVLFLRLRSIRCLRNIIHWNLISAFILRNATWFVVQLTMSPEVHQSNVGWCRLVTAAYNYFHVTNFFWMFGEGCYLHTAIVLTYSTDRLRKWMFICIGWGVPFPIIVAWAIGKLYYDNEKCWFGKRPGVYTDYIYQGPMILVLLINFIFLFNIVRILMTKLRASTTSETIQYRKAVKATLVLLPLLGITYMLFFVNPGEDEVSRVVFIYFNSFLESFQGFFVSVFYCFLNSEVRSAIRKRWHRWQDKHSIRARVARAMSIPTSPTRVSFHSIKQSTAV
Put plainly: Activity at anti-target CFR1R receptor, cAMP assay in CRF1R-overexpression CHO-K1 cells. It is filed as cell-based. The conditions noted are these: 100% = Sauvagine at 100 nM. In outline:
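Clone 2 cells were cultured in F12 (Hams)/10% FBS/400 μg/ml G418 at 37° C./5% CO2, frozen in medium with 10% DMSO, and thawed vials used. The protocol followed the TeloHAEC procedure, with 4000 cells/well final and Sauvagine at 100 nM defining 100% activation.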

Data set [7] relates to Sprague Dawley rats. Put plainly: Effect on systolic blood pressure, telemetry in Sprague Dawley rats. It is filed as in vivo, rat. The settings on record: 0.1 mg/kg SC. The method in brief:
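Sprague Dawley rats with abdominal-aorta telemetry catheters, recovered ≥10 days, received 0.1 mg/kg SC of compound or vehicle. Systolic pressure recorded 1 h pre-dose as baseline, then continuously up to 48 hours, expressed as % change from baseline; duration of action is last time point with a BP effect (n=2).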

As for `CCCCC(=O)N[C@H](C(=O)N[C@@H](CC(C)C)C(=O)N[C@@H](CO)C(=O)N[C@@H](CC(C)C)C(=O)N[C@@H](CC(=O)O)C(=O)N[C@@H](C(=O)N1CCC[C@H]1C(=O)N[C@H](C(=O)N[C@@H](CCCCN)C(=O)N[C@@H](CC(C)C)C(=O)N[C@@H](CCCCNC(=O)CC[C@H](NC(=O)CCCCCCCCCCCCCCCCCCC(=O)O)C(=O)O)C(=O)N[C@@H](CCCCN)C(=O)N[C@H](C(=O)N[C@@H](CC(C)C)C(=O)N[C@@H](CC(C)C)C(=O)N[C@@H](CCC(=O)O)C(=O)N[C@@H](CCC(N)=O)C(=O)N[C@@H](CCC(=O)O)C(=O)N[C@@H](CCCCN)C(=O)N[C@@H](CCC(N)=O)C(=O)N[C@@H](CCCCN)C(=O)N[C@@H](C)C(=O)N[C@@H](CCC(N)=O)C(=O)N[C@@H](CCCNC(=N)N)C(=O)N[C@@H](CCC(=O)O)C(=O)N[C@@H](CCC(N)=O)C(=O)N[C@@H](C)C(=O)N[C@@H](CCC(=O)O)C(=O)N[C@H](C(=O)N[C@@H](CC(N)=O)C(=O)NC(C)(C)C(=O)N[C@@H](CCC(N)=O)C(=O)N[C@H](C(=O)N[C@@H](CC(C)C)C(=O)N[C@@H](C)C(=O)N[C@@H](CCC(N)=O)C(=O)N[C@H](C(N)=O)C(C)C)[C@@H](C)CC)[C@@H](C)O)[C@@H](C)CC)[C@@H](C)CC)C(C)C)C(C)C` [compound 222] (Pentanoyl-VLSLD[dV]PIKLK([γGlu-C20 diacid])KILLEQEKQKAQREQAETN[Aib]QILAQV-NH2), the “Buffer stability pH 7.4 % purity loss” value in data set [1] was 0.0/Not Tested %. In addition, in data set [2], the exposure AUC(0-t) was 3320 ng·h/mL and the half-life was 7 h. The compound also had a pEC50 in data set [3] of 9.85. The fraction remaining at 2 h in data set [4] was 62%. Moreover, in data set [5], the AUC(0-t) was 2890 ng·h/mL, the concentration peaked (Cmax) at 113 ng/mL, the Tmax was 8 h and the half-life is 12 h. Also, the “Emax (% I)” value in data set [6] is reported as 50 % I.

Consider `CCCCCCCCCC(=O)N[C@H](C(=O)N[C@@H](CC(C)C)C(=O)N[C@@H](CO)C(=O)N[C@@H](CC(C)C)C(=O)N[C@@H](CC(=O)O)C(=O)N[C@@H](C(=O)N1CCC[C@H]1C(=O)N[C@H](C(=O)N[C@@H](CCCCN)C(=O)N[C@@H](CC(C)C)C(=O)N[C@@H](CCCCNC(=O)CC[C@H](NC(=O)CCCCCCCCCCCCCCCCCCC(=O)O)C(=O)O)C(=O)N[C@@H](CCCCN)C(=O)N[C@H](C(=O)N[C@@H](CC(C)C)C(=O)N[C@@H](CC(C)C)C(=O)N[C@@H](CCC(=O)O)C(=O)N[C@@H](CCC(N)=O)C(=O)N[C@@H](CCC(=O)O)C(=O)N[C@@H](CCCCN)C(=O)N[C@@H](CCC(N)=O)C(=O)N[C@@H](CCCCN)C(=O)N[C@@H](CCCCN)C(=O)N[C@@H](CCC(N)=O)C(=O)N[C@@H](CCCNC(=N)N)C(=O)N[C@@H](CCC(=O)O)C(=O)N[C@@H](CCC(N)=O)C(=O)N[C@@H](C)C(=O)N[C@@H](CCC(=O)O)C(=O)N[C@H](C(=O)N[C@@H](CC(N)=O)C(=O)NC(C)(C)C(=O)N[C@@H](CCC(N)=O)C(=O)N[C@H](C(=O)N[C@@H](CC(C)C)C(=O)N[C@@H](C)C(=O)N[C@@H](CCC(N)=O)C(=O)N[C@H](C(N)=O)C(C)C)[C@@H](C)CC)[C@@H](C)O)[C@@H](C)CC)[C@@H](C)CC)C(C)C)C(C)C` [compound 223] (Decanoyl-VLSLD[dV]PIKLK([γGlu-C20 diacid])KILLEQEKQKKQREQAETN[Aib]QILAQV-NH2), for which, in data set [1], the “Buffer stability pH 7.4 % purity loss” value is −0.1/Not Tested %. Moreover, in data set [2], the exposure AUC(0-t) is 1920 ng·h/mL and the half-life was 2.8 h. For the same compound, in data set [3], the pEC50 is 10.10. The share remaining at 2 h in data set [4] amounted to 79%. Besides, in data set [5], the AUC(0-t) is 698 ng·h/mL, the maximum concentration (Cmax) was 67 ng/mL, the Tmax was found to be 2 h and the half-life was 6.5 h. In addition, the “Emax (% I)” value in data set [6] stood at 58 % I.

Take `CCCCC(=O)N[C@H](C(=O)N[C@@H](CC(C)C)C(=O)N[C@@H](CO)C(=O)N[C@@H](CC(C)C)C(=O)N[C@@H](CC(=O)O)C(=O)N[C@@H](C(=O)N1CCC[C@H]1C(=O)N[C@H](C(=O)N[C@@H](CCCCN)C(=O)N[C@@H](CC(C)C)C(=O)N[C@@H](CCCCNC(=O)COCCOCCNC(=O)CC[C@H](NC(=O)CCCCCCCCCCCCCCCCCCC(=O)O)C(=O)O)C(=O)N[C@@H](CCCCN)C(=O)N[C@H](C(=O)N[C@@H](CC(C)C)C(=O)N[C@@H](CC(C)C)C(=O)N[C@@H](CCC(=O)O)C(=O)N[C@@H](CCC(N)=O)C(=O)N[C@@H](CCC(=O)O)C(=O)N[C@@H](CCCCN)C(=O)N[C@@H](CCC(N)=O)C(=O)N[C@@H](CCCCN)C(=O)N[C@@H](CCCCN)C(=O)N[C@@H](CCC(N)=O)C(=O)N[C@@H](CCCNC(=N)N)C(=O)N[C@@H](CCC(=O)O)C(=O)N[C@@H](CCC(N)=O)C(=O)N[C@@H](C)C(=O)N[C@@H](CCC(=O)O)C(=O)N[C@H](C(=O)N[C@@H](CC(N)=O)C(=O)NC(C)(C)C(=O)N[C@@H](CCC(N)=O)C(=O)N[C@H](C(=O)N[C@@H](CC(C)C)C(=O)N[C@@H](C)C(=O)N[C@@H](CCC(N)=O)C(=O)N[C@H](C(N)=O)C(C)C)[C@@H](C)CC)[C@@H](C)O)[C@@H](C)CC)[C@@H](C)CC)C(C)C)C(C)C` [compound 235] (Pentanoyl-VLSLD[dV]PIKLK([AEEA-γGlu-C20 diacid])KILLEQEKQKKQREQAETN[Aib]QILAQV-NH2): the “Buffer stability pH 4.5 % purity loss” value in data set [1] (100 mM acetate buffer pH 4.5) is listed as −1.6%. For the same compound, in data set [1], the “Buffer stability pH 7.4 % purity loss” value worked out at 0.0%. In addition, in data set [2], the area under the curve AUC(0-t) was 4510 ng·h/mL and the half-life is 8 h. The compound also showed a pEC50 in data set [3] of 9.80. For the same compound, in data set [7] (8 h, n=2), the “Systolic blood pressure (Mean) % change from baseline, 8 h” value is −8%. Moreover, the “Systolic blood pressure (Mean) % change from baseline, 12 h” value in data set [7] (12 h, n=2) was −7%. The “Systolic blood pressure (Mean) % change from baseline, 24 h” value in data set [7] (24 h, n=2) is −12%. For the same compound, the Duration of action in data set [7] (last time point with an effect on BP still observed) is greater than 24 h. For the same compound, in data set [4], the fraction remaining at 2 h was found to be 66%. The “Emax (% I)” value in data set [6] came to 27 % I. Also, the pEC50 in data set [6] (cAMP) is less than 6.60.
